Test results from US5389615A, “Peptides and pharmaceutical composition thereof in the treatment of pain” (British Technology Group Ltd., priority 1988, dated 1995).
Several values for one entry are separate records, joined by “and”; a condition that tells them apart may be missing. Identical values can stand only once. Like-named read-outs stand apart in the source and are kept apart here. Non-standard residues stand in square brackets, D forms with d. Residues, ends and D or L forms follow the SMILES beside them.

Columns and labels:
[1] = system: hyperalgesia evoked by PGE2; experiment: Rat paw pressure test, hyperalgesia evoked by PGE2; type: in vivo; conditions: for DELTA REACTION TIME: 3 h after PGE2, control 16.8; for ED50 antagonising PGE2 evoked hyperalgesia / antagonism of hyperalgesia evoked by PGE2: rats
[2] = system: hyperalgesia evoked by acetic acid; experiment: Contorsions evoked by acetic acid, Example 19; type: in vivo, mice; conditions: for number of contorsions (median), 10 to 20 min after acetic acid: 30 min before acetic acid
Protocol: The number of contorsions (abdominal constrictions or writhes) was counted in the period between 10 and 20 min after ip challenge with acetic acid by an observer unaware of drug treatment.

[3] = system: hyperalgesia evoked by IL-1β; experiment: Modified Randall-Sellito rat paw pressure test, hyperalgesia evoked by IL-1β; type: in vivo; conditions: for DELTA REACTION TIME: 3h after IL-1β, control 23.9; for ED50 antagonising IL-1β evoked hyperalgesia / antagonism of hyperalgesia evoked by IL-1β: rats; for antagonism of hyperalgesia evoked by IL-1β: peptide given before IL-1β
Protocol: The hyperalgesic activity of IL-1β was investigated by a modified Randall-Sellito rat paw pressure test (Ferreira et al, Eur. J. Pharacol. 53, 39-48, 1978).
The IL-1β was given either intraplantar (ipl, injection volume=0.1 ml) or intraperitoneally (ip, injection volume=0.3 ml).
The intensity of hyperalgesia was quantified as the variation of the reaction time (Δ reaction time, sec) obtained by subtracting the value measured 1,2,3 or 4h after administration of the hyperalgesic agent from the pre-injection control reaction time (zero time). The experimenter was unaware of the group treatments.
The vertical bars are standard errors of the means (s.e.m's) of values obtained in groups of 5 rats.
Each symbol or histogram represents the mean response of 5 animals per treatment group. Vertical bars are s.e.m's.
The data are means±s.e.m.'s of 5 animals per treatment group.
Each symbol represents the mean response of 5 animals per treatment group. Vertical bars are s.e.m.'s.
Treatments were given ip, lh before Il-1β, also given ip. There were 5 animals per treatment group.
Delta reaction time was measured 3h after Il-1β administration.
The Control was II-1β (0.05U), given ip.

[4] = system: hyperalgesia evoked by DbcAMP; experiment: Rat paw pressure test, hyperalgesia evoked by DbcAMP; type: in vivo; conditions: for % change of delta reaction time vs control (=100%) / DELTA REACTION TIME: 200 μg/150 g rat ip 1 h before DbcAMP (100 μg/paw) ipl; for DELTA REACTION TIME: 3 h after DbcAMP, control 17.2
[5] = system: hyperalgesia evoked by IL-1β; conditions: reference analgesics; cited from earlier work
[6] = in vivo
[7] = Gastric lesions in mice
[8] = system: febrile rabbits; conditions: Richards and Lipton, Peptides 5 (1984) 815-817; cited from earlier work
[9] = mouse, in vivo
[10] = system: hyperalgesia evoked by Iloprost; experiment: Contortions (writhing) evoked by Iloprost, Examples 9 and 10; type: in vivo, mice; conditions: Example 10, Iloprost 10 μg/kg; for total number of contorsions during 20 minutes after ip challenge: control 39.4
Protocol: (§1) Iloprost is a stable analogue of prostacyclin and has the formula: [drawing 4]
(§2) Example 9 was repeated with some groups of mice given indomethacin at various doses rather than the peptide K(D)PT. A control group of mice received neither indomethacin nor K(D)PT. The data are the total number of contorsions measured during 20 minutes after the ip challenge.

[11] = system: human blood mononuclear cells (MNC); experiment: PGE2 release by human blood mononuclear cells; type: cell-based
Protocol: The effect of K(D)PT and indomethacin on PGE2 release by human blood mononuclear cells (MNC) was investigated. The MNC were isolated from buffy coat residues by density gradient centrifugation (Ficoll-hypaque, Sigma) and resuspended in RPMI 1640 culture medium (Gibco)+ 2% inactivated foetal calf serum (Imperial Laboratories). […] Values are means of quadruplicates ±s.e.m.'s. PGE2 concentrations were measured by radioimmunoassay (NEN Research Products).

[12] = system: hyperalgesia evoked by acetic acid; experiment: Contortions (writhing) evoked by acetic acid, Examples 9 and 10; type: in vivo, mice; conditions: Example 10; for total number of contorsions during 20 minutes after ip challenge: control 45.3
Protocol: as §1, §2

[13] = 20 μg/150 g rat ip 1h before PGE2 ipl
[14] = 50 μg/150 g rat ip 1h before PGE2 ipl
[15] = 100 μg/150 g rat ip 1h before PGE2 ipl
[16] = 200 μg/150 g rat ip 1h before PGE2 ipl
[17] = 20 μg/150 g rat ip 1h before IL-1β (0.05U) ip
[18] = 50 μg/150 g rat ip 1h before IL-1β (0.05U) ip
[19] = 100 μg/150 g rat ip 1h before IL-1β (0.05U) ip
[20] = 200 μg/150 g rat ip 1h before IL-1β (0.05U) ip
[21] = indomethacin 100 μg ipl 30 minutes before 0.05U IL-1β ipl or ip

CC(C)[C@H](NC(=O)[C@H]1CCCN1C(=O)[C@@H](N)CCCCN)C(=O)O [K(D)PV, Lys-D-Pro-Val] (H-Lys-[dP]-Val-OH)
% change of delta reaction time vs control (=100%) [1, 13]: -16.7%
DELTA REACTION TIME [1, 13]: 14.0 ± 0.4 s
% change of delta reaction time vs control (=100%) [1, 14]: -20.2%
DELTA REACTION TIME [1, 14]: 13.4 ± 0.4 s
% change of delta reaction time vs control (=100%) [1, 15]: -46±4%
DELTA REACTION TIME [1, 15]: 9.0 ± 0.2 s
% change of delta reaction time vs control (=100%) [1, 16]: -64.3%
DELTA REACTION TIME [1, 16]: 6.0 ± 0.3 s
ED50 antagonising PGE2 evoked hyperalgesia [1]: ~140 μg/150 g rat
antagonism of hyperalgesia evoked by PGE2 [1]: antagonize hyperalgesia evoked by PGE2
% reductions from control values in mice injected with saline ([2]; 2 mg/kg ip): -33%
number of contorsions (median), 10 to 20 min after acetic acid ([2]; 2 mg/kg ip): 19
% reductions from control values in mice injected with saline ([2]; 10 mg/kg ip): -38%
number of contorsions (median), 10 to 20 min after acetic acid ([2]; 10 mg/kg ip): 17
% reductions from control values in mice injected with saline ([2]; 30 mg/kg ip): -45%
number of contorsions (median), 10 to 20 min after acetic acid ([2]; 30 mg/kg ip): 15.5
% reductions from control values in mice injected with saline ([2]; 100 mg/kg ip): -74%
number of contorsions (median), 10 to 20 min after acetic acid ([2]; 100 mg/kg ip): 7
% reductions from control values in mice injected with saline ([2]; 100 mg/kg po): -52%
number of contorsions (median), 10 to 20 min after acetic acid ([2]; 100 mg/kg po): 13
analgesic activity against hyperalgesia evoked by acetic acid, given ip [2]: dose-related analgesic activity
% change of delta reaction time vs control (=100%) [3, 17]: -23.9%
DELTA REACTION TIME [3, 17]: 18.2 ± 0.4 s
% change of delta reaction time vs control (=100%) [3, 18]: -64.4%
DELTA REACTION TIME [3, 18]: 8.5 ± 0.6 s
% change of delta reaction time vs control (=100%) [3, 19]: 84.1%
DELTA REACTION TIME [3, 19]: 3.8 ± 0.7 s
% change of delta reaction time vs control (=100%) [3, 20]: -88.3%
DELTA REACTION TIME [3, 20]: 2.8 ± 0.6 s
ED50 antagonising IL-1β evoked hyperalgesia [3]: 40 μg/150 g rat
antagonism of hyperalgesia evoked by IL-1β [3]: more potent antagonists of I1-1β-evoked hyperalgesia than Lys-D-Pro-Thr
% change of delta reaction time vs control (=100%) [4]: -7.0%
DELTA REACTION TIME [4]: 16.0 ± 0.2 s

CN1CC[C@]23c4c5ccc(O)c4O[C@H]2[C@@H](O)C=C[C@H]3[C@H]1C5 [Morphine, morphine]
antagonism of on-going hyperalgesia [5]: able to antagonize on-going hyperalgesia
reaction time difference, hot plate [6]: 3.52 s and 5.55 s
antagonism of hyperalgesia evoked by DbcAMP ([4]; rat, in vivo): effective antagonist

C[C@@H](O)[C@H](NC(=O)[C@H]1CCCN1C(=O)[C@@H](N)CCCCN)C(=O)O [K(D)PT, Lys-D-Pro-Thr] (H-Lys-[dP]-Thr-OH)
gastric lesions ([7]; 32 mg/kg): No lesions were observed
gastric lesions ([7]; mice of Example 10): did not

NCCCC[C@H](N)C(=O)N1CCC[C@@H]1C(=O)O [K(D)P, Lys-D-Pro] (H-Lys-[dP]-OH)
% reductions from control values in mice injected with saline ([2]; 5 mg/kg ip): -58%
number of contorsions (median), 10 to 20 min after acetic acid ([2]; 5 mg/kg ip): 11
% reductions from control values in mice injected with saline ([2]; 5 mg/kg po): -10%
number of contorsions (median), 10 to 20 min after acetic acid ([2]; 5 mg/kg po): 19
% reductions from control values in mice injected with saline ([2]; 10 mg/kg po): -36%
number of contorsions (median), 10 to 20 min after acetic acid ([2]; 10 mg/kg po): 13.5
% reductions from control values in mice injected with saline ([2]; 20 mg/kg ip): -77%
number of contorsions (median), 10 to 20 min after acetic acid ([2]; 20 mg/kg ip): 6
% reductions from control values in mice injected with saline ([2]; 20 mg/kg po): -38%
number of contorsions (median), 10 to 20 min after acetic acid ([2]; 20 mg/kg po): 14
analgesic activity against hyperalgesia evoked by acetic acid, given ip [2]: effective analgesic
analgesic activity against hyperalgesia evoked by acetic acid, given orally ([2]; po): effective analgesic

CC(C)[C@H](NC(=O)[C@@H]1CCCN1C(=O)[C@@H](N)CCCCN)C(=O)O [KPV, Lys-Pro-Val] (H-Lys-Pro-Val-OH)
antipyretic effect [8]: antipyretic effect
% change of delta reaction time vs control (=100%) [1, 13]: -11.3%
DELTA REACTION TIME [1, 13]: 14.9 ± 0.4 s
% change of delta reaction time vs control (=100%) [1, 14]: -22.6%
DELTA REACTION TIME [1, 14]: 13.0 ± 0.3 s
% change of delta reaction time vs control (=100%) [1, 15]: -41.1%
DELTA REACTION TIME [1, 15]: 9.9 ± 0.2 s
% change of delta reaction time vs control (=100%) [1, 16]: -53.6%
DELTA REACTION TIME [1, 16]: 7.8 ± 0.6 s
ED50 antagonising PGE2 evoked hyperalgesia [1]: approximately 170 μg/150 g rat
antagonism of hyperalgesia evoked by PGE2 [1]: antagonize hyperalgesia evoked by PGE2
% change of delta reaction time vs control (=100%) [3, 17]: -21.3%
DELTA REACTION TIME [3, 17]: 18.8 ± 0.3 s
% change of delta reaction time vs control (=100%) [3, 18]: -52.7%
DELTA REACTION TIME [3, 18]: 11.3 ± 0.5 s
% change of delta reaction time vs control (=100%) [3, 19]: -69.9%
DELTA REACTION TIME [3, 19]: 7.2 ± 0.6 s
% change of delta reaction time vs control (=100%) [3, 20]: -83.7%
DELTA REACTION TIME [3, 20]: 3.9 ± 0.3 s
ED50 antagonising IL-1β evoked hyperalgesia [3]: 70 μg/150 g rat
antagonism of hyperalgesia evoked by IL-1β [3]: more potent antagonists of I1-1β-evoked hyperalgesia than Lys-D-Pro-Thr
% change of delta reaction time vs control (=100%) [4]: -8.1%
DELTA REACTION TIME [4]: 15.8 ± 0.3 s

COc1ccc2c(c1)c(CC(=O)O)c(C)n2C(=O)c1ccc(Cl)cc1 [Indomethacin, indomethacin]
gastric erosions, % of the mice [9]: 100%
gastric lesions [9]: caused gastric lesions
(-%) reduction of contorsions vs control ([10]; 1.25 mg/kg): 7.6%
total number of contorsions during 20 minutes after ip challenge ([10]; 1.25 mg/kg): 36.4
(-%) reduction of contorsions vs control ([10]; 5.0 mg/kg): 26.0%
total number of contorsions during 20 minutes after ip challenge ([10]; 5.0 mg/kg): 29.2
(-%) reduction of contorsions vs control ([10]; 20.0 mg/kg): 46.0%
total number of contorsions during 20 minutes after ip challenge ([10]; 20.0 mg/kg): 21.3
effect on production of PGE2 / prostaglandin [11]: abolished PGE2 production
PGE2 release by MNC incubated for 4h with IL-1α (50 U/ml) ([11]; 2 μg/ml, 5.9 micromoles/L, added 45 min before, ethanol control 2.0): 0.03 ± 0.0007 ng/mL
PGE2 release by MNC incubated for 4h with IL-1β (50 U/ml) ([11]; 2 μg/ml, 5.9 micromoles/L, added 45 min before, ethanol control 2.1): 0.03 ± 0.0005 ng/mL
PGE2 release by MNC incubated for 4h with E. coli endotoxin (25 pg/ml) ([11]; 2 μg/ml, 5.9 micromoles/L, added 45 min before, ethanol control 3.1): 0.03 ± 0.0004 ng/mL
PGE2 release by MNC (5 × 10^6 cells/ml) incubated for 4h with Saline control (0.9% w/v) ([11]; 2 μg/ml, 5.9 micromoles/L, ethanol control 1.3): 0.03 ± 0.0002 ng/ml
% reductions from control values in mice injected with saline ([2]; 2.5 mg/kg ip): -37%
number of contorsions (median), 10 to 20 min after acetic acid ([2]; 2.5 mg/kg ip): 16.5
% reductions from control values in mice injected with saline ([2]; 5 mg/kg ip): -61.5%
number of contorsions (median), 10 to 20 min after acetic acid ([2]; 5 mg/kg ip): 10
% reductions from control values in mice injected with saline ([2]; 10 mg/kg ip): -61.5%
number of contorsions (median), 10 to 20 min after acetic acid ([2]; 10 mg/kg ip): 10
effect of pretreatment on hyperalgesic response to IL-1β, contralateral paws (CL) [3, 21]: no effect
effect of pretreatment on hyperalgesic response to IL-1β, treated paws (I) [3, 21]: markedly attenuated
total number of contorsions during 20 minutes after ip challenge ([12]; acetic acid .6% 0.1 ml/10 g, 1.25 mg/kg): 34.6
(-%) reduction of contorsions vs control ([12]; acetic acid .6%, 1.25 mg/kg): 23.6%
(-%) reduction of contorsions vs control ([12]; acetic acid .6%, 5.0 mg/kg): 46.3%
total number of contorsions during 20 minutes after ip challenge ([12]; acetic acid .6%, 5.0 mg/kg): 24.3
(-%) reduction of contorsions vs control ([12]; acetic acid .6%, 20.0 mg/kg): 57.4%
total number of contorsions during 20 minutes after ip challenge ([12]; acetic acid .6%, 20.0 mg/kg): 19.3

Cc1c(N(C)CS(=O)(=O)O)c(=O)n(-c2ccccc2)n1C [dipyrone]
antagonism of on-going hyperalgesia [5]: able to antagonize on-going hyperalgesia
